Consider 17 compounds from patent publication US9708336B2, “Metallo-beta-lactamase inhibitors” (priority 2014, dated 2017).

Assay [1] relates to Serratia marcescens expressing IMP-1 (CL5741). Kind of assay: Antibiotic potentiation activity: synergistic concentration (MITC95) with imipenem, OD600 growth. The assay is classed as cell-based. To be noted: Serratia marcescens CL5741 (IMP-1), 95% growth inhibition. The procedure, abridged:
(§1)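 Steps: colonies grown overnight at 35 °C; resuspended in saline to OD600 0.11–0.15 by strain; diluted 1:100 into 1.1× CAMHB; imipenem then compound added (antibiotic 4 μg/ml in assay); incubated 35 °C for 22–24 h; absorbance measured.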

The subject of assay [2] is Escherichia coli expressing NDM-1 (CLB30016). The description is as above. The format is cell-based. To be noted: (CLB30016, NDM-1), 95% growth inhibition. Put shortly:
as §1

Assay [3] has as its system Klebsiella pneumoniae expressing VIM-1 (IHMA599644). The assay is described as above. The format is cell-based. To be noted: Klebsiella pneumoniae IHMA599644 (VIM-1), 95% growth inhibition. The procedure, abridged:
as §1

The target in the next assay is IMP-1 (Serratia marcescens, UniProt P52699). Nature of the assay: biochemical. The format is biochemical. Conditions: IMP-1 enzyme, CCF2-FA substrate; read-out: IMP-1 IC50.
The target in a further assay is NDM-1 (Klebsiella pneumoniae, UniProt C7C422). Nature of the assay: biochemical. The format is biochemical. Conditions: NDM-1 enzyme, CCF2-FA substrate; read-out: NDM-1 IC50.
The target in the next assay is VIM-1 (Pseudomonas aeruginosa (strain ATCC 15692 / DSM 22644 / CIP 104116 / JCM 14847 / LMG 12228 / 1C / PRS 101 / PAO1), UniProt A0A0F7KYQ8). Nature of the assay: Enzyme activity: determination of IC50, fluorescence assay with CCF2-FA substrate (VIM-1). The format is biochemical. To be noted: CCF2-FA substrate.
Setting [4] is: VIM-1 enzyme, read-out: VIM-1 IC50.

Where two headings read alike, the source gives them in different places.

Chain of NDM-1 (C7C422 whole entry, looked up, species assumed): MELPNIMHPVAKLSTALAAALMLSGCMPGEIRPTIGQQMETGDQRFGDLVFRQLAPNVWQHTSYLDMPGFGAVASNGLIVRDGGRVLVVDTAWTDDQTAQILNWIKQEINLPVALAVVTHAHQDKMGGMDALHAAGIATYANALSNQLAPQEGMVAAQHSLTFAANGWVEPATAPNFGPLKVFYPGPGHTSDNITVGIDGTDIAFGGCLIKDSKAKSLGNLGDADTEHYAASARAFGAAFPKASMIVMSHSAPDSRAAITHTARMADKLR
Chain of IMP-1 (P52699 whole entry, looked up): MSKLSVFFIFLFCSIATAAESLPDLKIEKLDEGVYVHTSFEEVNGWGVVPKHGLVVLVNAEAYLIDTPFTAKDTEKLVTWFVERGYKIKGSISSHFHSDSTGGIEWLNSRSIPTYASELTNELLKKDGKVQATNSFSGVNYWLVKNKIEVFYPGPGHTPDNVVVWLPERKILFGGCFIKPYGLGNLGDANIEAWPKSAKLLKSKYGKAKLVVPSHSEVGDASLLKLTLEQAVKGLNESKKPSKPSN

One may read the IC50 as the concentration that gives 50% inhibition. For the compound `NC1CCC(N[C@H]2CC[C@H](c3ccc(C(F)(F)F)c(S(N)(=O)=O)c3-c3nnn[nH]3)CC2)CC1` (stereo partly drawn) [Example 701, 3-{4-[(4-aminocyclohexyl)amino]cyclohexyl}-2-(1H-tetrazol-5-yl)-6-(trifluoromethyl)benzene sulfonamide], the “Serratia marcescens MITC95” value in assay [1] came to 3.125 µM. Further, the “Escherichia coli MITC95” value in assay [2] amounted to 0.7813 µM. Moreover, in assay [3], the “Klebsiella pneumoniae MITC95” value was determined as 6.25 µM. Further, the half-maximal inhibitory concentration (IC50) at IMP-1 came out at 62.9 nM; at NDM-1, 15.4 nM; on VIM-1 (VIM-1 IC50, VIM-1 enzyme) it was 12.7 nM.

As for `NC1CC(N[C@H]2CC[C@H](c3ccc(C(F)(F)F)c(S(N)(=O)=O)c3-c3nnn[nH]3)CC2)C1` (stereo partly drawn) [Example 702, 3-{4-[(3-aminocyclobutyl)amino]cyclohexyl}-2-(1H-tetrazol-5-yl)-6-(trifluoromethyl)benzene sulfonamide], the “Serratia marcescens MITC95” value in assay [1] turned out to be 3.125 µM. Moreover, in assay [2], the “Escherichia coli MITC95” value stood at 0.7813 µM. The “Klebsiella pneumoniae MITC95” value in assay [3] is 1.563 µM. The half-maximal inhibitory concentration (IC50) at IMP-1 amounted to 25.2 nM; at NDM-1 it was 4.02 nM; on VIM-1 (VIM-1 IC50, VIM-1 enzyme) it was 2.25 nM.

Turning to `NC1CCC(N[C@H]2CC[C@H](c3ccc(C(F)(F)F)c(S(N)(=O)=O)c3-c3nnn[nH]3)CC2)C1` (stereo partly drawn) [Example 703, 3-{4-[(3-aminocyclopentyl)amino]cyclohexyl}-2-(1H-tetrazol-5-yl)-6-(trifluoromethyl)benzene sulfonamide], the “Serratia marcescens MITC95” value in assay [1] turned out to be 3.125 µM. Further, in assay [2], the “Escherichia coli MITC95” value was determined as 0.3906 µM. In addition, in assay [3], the “Klebsiella pneumoniae MITC95” value was found to be 12.5 µM. Further, the IC50 on IMP-1 amounted to 38 nM; at NDM-1, 6.14 nM; at VIM-1 (VIM-1 IC50, VIM-1 enzyme), 8.38 nM.

Turning to `NCC1CCC(N[C@H]2CC[C@H](c3ccc(C(F)(F)F)c(S(N)(=O)=O)c3-c3nnn[nH]3)CC2)CC1` (stereo partly drawn) [Example 704, 3-(4-{[4-(aminomethyl)cyclohexyl]amino}cyclohexyl)-2-(1H-tetrazol-5-yl)-6-(trifluoromethyl)benzene sulfonamide], the “Serratia marcescens MITC95” value in assay [1] is 6.25 µM. The “Escherichia coli MITC95” value in assay [2] is 1.563 µM. Also, in assay [3], the “Klebsiella pneumoniae MITC95” value came out at 6.25 µM. Also, the IC50 at IMP-1 is 51.6 nM; on NDM-1, 14.8 nM; on VIM-1 (setting [4]), 7.17 nM.

For the compound `NCCC1CCC(N[C@H]2CC[C@H](c3ccc(C(F)(F)F)c(S(N)(=O)=O)c3-c3nnn[nH]3)CC2)CC1` (stereo partly drawn) [Example 705, 3-(4-{[4-(2-aminoethyl)cyclohexyl]a-mino}cyclohexyl)-2-(1H-tetrazol-5-yl)-6-(trifluoromethyl)benzene sulfonamide], in assay [1], the “Serratia marcescens MITC95” value was 4.688 µM. The “Escherichia coli MITC95” value in assay [2] is 2.344 µM. The “Klebsiella pneumoniae MITC95” value in assay [3] came to 12.5 µM. For the same compound, the IC50 at IMP-1 worked out at 61.1 nM; at NDM-1, 18.2 nM; at VIM-1 (setting [4]) it was 5.7 nM.

Consider `NS(=O)(=O)c1c(C(F)(F)F)ccc(-c2cnc(N3CCNCC3)nc2)c1-c1nnn[nH]1` [Example 706, 3-(2-piperazin-1-ylpyrimidin-5-yl)-2-(1H-tetrazol-5-yl)-6-(trifluoromethyl)benzenesulfon-amide], for which, in assay [1], the “Serratia marcescens MITC95” value worked out at 6.25 µM. The “Escherichia coli MITC95” value in assay [2] amounted to 3.125 µM. The “Klebsiella pneumoniae MITC95” value in assay [3] was determined as 1.563 µM. Also, the half-inhibitory concentration (IC50) on IMP-1 came out at 12.4 nM; on NDM-1, 4.52 nM; on VIM-1 (VIM-1 IC50, VIM-1 enzyme), 0.632 nM.

For the compound `NCCc1ccc(-c2ccc(C(F)(F)F)c(S(N)(=O)=O)c2-c2nnn[nH]2)cc1` [Example 707, 4′-(2-aminoethyl)-2-(1H-tetrazol-5-yl)-4-(trifluoromethyl)biphenyl-3-sulfonamide], the “Serratia marcescens MITC95” value in assay [1] came to 6.25 µM. In addition, in assay [2], the “Escherichia coli MITC95” value came out at 3.125 µM. Moreover, the “Klebsiella pneumoniae MITC95” value in assay [3] is 1.563 µM. Besides, the IC50 is 6.67 nM at IMP-1, 5.59 nM on NDM-1 and 0.249 nM at VIM-1 (setting [4]).

As for `NS(=O)(=O)c1c(C(F)(F)F)ccc(-c2cnc3[nH]ccc3c2)c1-c1nnn[nH]1` [Example 708, 3-(1H-pyrrolo[2,3-b]pyridin-5-yl)-2-(1H-tetrazol-5-yl)-6-(trifluoromethyl)benzenesulfon-amide], the “Serratia marcescens MITC95” value in assay [1] came out at 6.25 µM. The “Escherichia coli MITC95” value in assay [2] came out at 1.563 µM. The “Klebsiella pneumoniae MITC95” value in assay [3] came out at 6.25 µM. The results for the concentration for half-maximal inhibition (IC50) on IMP-1, at NDM-1 and at VIM-1 (setting [4]) were 1.6 nM, 0.38 nM and 0.144 nM, respectively.

For the compound `NS(=O)(=O)c1c(C(F)(F)F)ccc(-c2snc3ncccc23)c1-c1nnn[nH]1` [Example 709, 3-isothiazolo[3,4-b]pyridin-3-yl-2-(1H-tetrazol-5-yl)-6-(trifluoromethyl)benzenesulfon-amide], the “Serratia marcescens MITC95” value in assay [1] was 25 µM. The “Escherichia coli MITC95” value in assay [2] stood at 6.25 µM. The “Klebsiella pneumoniae MITC95” value in assay [3] stood at 6.25 µM. The results for the IC50 at IMP-1, on NDM-1 and on VIM-1 (setting [4]) were 16.4 nM, 6.58 nM and 0.289 nM, respectively.

For `NS(=O)(=O)c1c(C(F)(F)F)ccc(-c2cnn3ccccc23)c1-c1nnn[nH]1` [Example 710, 3-pyrazolo[1,5-a]pyridin-3-yl-2-(1H-tetrazol-5-yl)-6-(trifluoromethyl)benzenesulfon-amide], the “Serratia marcescens MITC95” value in assay [1] amounted to 6.25 µM. Further, the “Escherichia coli MITC95” value in assay [2] stood at 6.25 µM. The “Klebsiella pneumoniae MITC95” value in assay [3] was 12.5 µM. Further, the half-maximal inhibitory concentration (IC50) on IMP-1 is 2.08 nM; at NDM-1, 0.89 nM; on VIM-1 (VIM-1 IC50, VIM-1 enzyme), 0.168 nM.

For the compound `NS(=O)(=O)c1c(C(F)(F)F)ccc(-c2cnc3ccoc3c2)c1-c1nnn[nH]1` [Example 711, 3-furo[3,2-b]pyridin-6-yl-2-(1H-tetrazol-5-yl)-6-(trifluoromethyl)benzenesulfon-amide], the “Serratia marcescens MITC95” value in assay [1] was 12.5 µM. Further, the “Escherichia coli MITC95” value in assay [2] was determined as 6.25 µM. For the same compound, in assay [3], the “Klebsiella pneumoniae MITC95” value was 6.25 µM. Further, the concentration for half-maximal inhibition (IC50) at IMP-1 came to 3.54 nM; on NDM-1 it was 1.01 nM; at VIM-1 (setting [4]), 0.224 nM.

Consider `NS(=O)(=O)c1c(C(F)(F)F)ccc(-c2cnc3ncccn23)c1-c1nnn[nH]1` [Example 712, 3-imidazo[1,2-a]pyrimidin-3-yl-2-(1H-tetrazol-5-yl)-6-(trifluoromethyl)benzenesulfon-amide], for which the “Serratia marcescens MITC95” value in assay [1] came to 100 µM. Moreover, the “Escherichia coli MITC95” value in assay [2] is 25 µM. Besides, the “Klebsiella pneumoniae MITC95” value in assay [3] amounted to 50 µM. Further, the IC50 on IMP-1 came out at 126 nM; at NDM-1, 58.7 nM; on VIM-1 (VIM-1 IC50, VIM-1 enzyme) it was 13.6 nM.

Consider `NS(=O)(=O)c1c(C(F)(F)F)ccc(-c2ccc(C3CNCCO3)cc2)c1-c1nnn[nH]1` (stereo not drawn) [Example 713, 4′-morpholin-2-yl-2-(1H-tetrazol-5-yl)-4-(trifluoromethyl)biphenyl-3-sulfonamide], for which, in assay [1], the “Serratia marcescens MITC95” value was found to be 6.25 µM. The “Escherichia coli MITC95” value in assay [2] came to 3.125 µM. Further, the “Klebsiella pneumoniae MITC95” value in assay [3] worked out at 3.125 µM. The IC50 amounted to 3.54 nM on IMP-1, 3.27 nM on NDM-1 and 0.819 nM at VIM-1 (setting [4]).

For the compound `Nc1cc(-c2ccc(C(F)(F)F)c(S(N)(=O)=O)c2-c2nnn[nH]2)cc(N)n1` [Example 714, 3-(2,6-diaminopyridin-4-yl)-2-(1H-tetrazol-5-yl)-6-(trifluoromethyl)benzenesulfon-amide], the “Serratia marcescens MITC95” value in assay [1] amounted to 12.5 µM. Moreover, the “Escherichia coli MITC95” value in assay [2] was found to be 1.563 µM. In addition, the “Klebsiella pneumoniae MITC95” value in assay [3] came out at 3.125 µM. For the same compound, the IC50 on IMP-1 was determined as 31.7 nM; on NDM-1, 5.05 nM; against VIM-1 (VIM-1 IC50, VIM-1 enzyme) it was 0.799 nM.

For the compound `NS(=O)(=O)c1c(C(F)(F)F)ccc(-c2ccc3c(c2)CNC3)c1-c1nnn[nH]1` [Example 715, 3-(2,3-dihydro-1H-isoindol-5-yl)-2-(1H-tetrazol-5-yl)-6-(trifluoromethyl)benzenesulfon-amide], the “Serratia marcescens MITC95” value in assay [1] was determined as 12.5 µM. Besides, in assay [2], the “Escherichia coli MITC95” value stood at 6.25 µM. For the same compound, the “Klebsiella pneumoniae MITC95” value in assay [3] amounted to 3.125 µM. For the same compound, the concentration for half-maximal inhibition (IC50) at IMP-1 was determined as 27.4 nM; on NDM-1, 25.3 nM; on VIM-1 (setting [4]), 0.729 nM.

On to `NS(=O)(=O)c1c(C(F)(F)F)ccc(-c2ccc(C3CCCN3)cc2)c1-c1nnn[nH]1` (stereo not drawn) [Example 716, 4′-pyrrolidin-2-yl-2-(1H-tetrazol-5-yl)-4-(trifluoromethyl)biphenyl-3-sulfonamide], for which the “Serratia marcescens MITC95” value in assay [1] is 3.125 µM. Also, the “Escherichia coli MITC95” value in assay [2] was 6.25 µM. The “Klebsiella pneumoniae MITC95” value in assay [3] was found to be 25 µM. In addition, the half-inhibitory concentration (IC50) on IMP-1 is 5.43 nM; on NDM-1, 8.07 nM; against VIM-1 (VIM-1 IC50, VIM-1 enzyme), 2.79 nM.

Consider `NS(=O)(=O)c1c(C(F)(F)F)ccc(-c2ccc(N3CCNCC3)cc2)c1-c1nnn[nH]1` [Example 717, 4′-piperazin-1-yl-2-(1H-tetrazol-5-yl)-4-(trifluoromethyl)biphenyl-3-sulfonamide], for which the “Serratia marcescens MITC95” value in assay [1] turned out to be 3.125 µM. Besides, the “Escherichia coli MITC95” value in assay [2] turned out to be 1.563 µM. In assay [3], the “Klebsiella pneumoniae MITC95” value was 3.125 µM. The results for the IC50 at IMP-1, at NDM-1 and at VIM-1 (setting [4]) were 2.62 nM, 1.64 nM and 0.598 nM, respectively.
